Data published in article PMC6773951 (Scientific Reports, 2019).

Biological target: T1, hPIRT (human PIRT, phosphoinositide interacting regulator of TRPs) (Homo sapiens, UniProt P0C851)
T1 construct: full-length, recombinant from E. coli, reconstituted in DPC micelles; two TM helices, C-terminal amphipathic helix Asp125-Arg137; maleimide dye labelled for MST
Assay: microscale thermophoresis
Format: binding
Details: DPC micelles (0.1% DPC), 50 mM HEPES pH 7.5, 25 °C; fluorophore-labelled hPIRT 400 nM; no TRPM8-S1S4; diC8 chain stated for the NMR titration, MST lipid called PIP2 only

T1 sequence (P0C851 whole entry): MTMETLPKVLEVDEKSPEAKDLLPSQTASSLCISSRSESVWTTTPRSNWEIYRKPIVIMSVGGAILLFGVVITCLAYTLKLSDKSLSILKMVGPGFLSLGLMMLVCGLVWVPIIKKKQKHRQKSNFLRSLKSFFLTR

## CCCCCCCC(=O)OC[C@H](COP(=O)(O)O[C@@H]1[C@H](O)[C@H](O)[C@@H](OP(=O)(O)O)[C@H](OP(=O)(O)O)[C@H]1O)OC(=O)CCCCCCC [PIP2, 1,2-dioctanoyl-sn-glycero-3-phospho-(1′-myo-inositol-4′,5′-bisphosphate)]
  Kd: 0.18 ± 0.06 mole%
